This is an account of results in ChEMBL document CHEMBL1201862, “PubChem BioAssay data set” (2004).

Experiment [1] deals with T1, Hexokinase-1 (Homo sapiens, UniProt P19367). The experiment can be described thus: SAR analysis of small molecule inhibitors of hexokinase domain containing I (HKDC1) in the hexokinase 1 selectivity assay. [Related pubchem assays (depositor defined):AID493160, AID493190]. The class given is functional.
Experiment [2] has as its target T2, Hexokinase HKDC1 (Homo sapiens, UniProt Q2TB90).
T2 sequence (Q2TB90 whole entry): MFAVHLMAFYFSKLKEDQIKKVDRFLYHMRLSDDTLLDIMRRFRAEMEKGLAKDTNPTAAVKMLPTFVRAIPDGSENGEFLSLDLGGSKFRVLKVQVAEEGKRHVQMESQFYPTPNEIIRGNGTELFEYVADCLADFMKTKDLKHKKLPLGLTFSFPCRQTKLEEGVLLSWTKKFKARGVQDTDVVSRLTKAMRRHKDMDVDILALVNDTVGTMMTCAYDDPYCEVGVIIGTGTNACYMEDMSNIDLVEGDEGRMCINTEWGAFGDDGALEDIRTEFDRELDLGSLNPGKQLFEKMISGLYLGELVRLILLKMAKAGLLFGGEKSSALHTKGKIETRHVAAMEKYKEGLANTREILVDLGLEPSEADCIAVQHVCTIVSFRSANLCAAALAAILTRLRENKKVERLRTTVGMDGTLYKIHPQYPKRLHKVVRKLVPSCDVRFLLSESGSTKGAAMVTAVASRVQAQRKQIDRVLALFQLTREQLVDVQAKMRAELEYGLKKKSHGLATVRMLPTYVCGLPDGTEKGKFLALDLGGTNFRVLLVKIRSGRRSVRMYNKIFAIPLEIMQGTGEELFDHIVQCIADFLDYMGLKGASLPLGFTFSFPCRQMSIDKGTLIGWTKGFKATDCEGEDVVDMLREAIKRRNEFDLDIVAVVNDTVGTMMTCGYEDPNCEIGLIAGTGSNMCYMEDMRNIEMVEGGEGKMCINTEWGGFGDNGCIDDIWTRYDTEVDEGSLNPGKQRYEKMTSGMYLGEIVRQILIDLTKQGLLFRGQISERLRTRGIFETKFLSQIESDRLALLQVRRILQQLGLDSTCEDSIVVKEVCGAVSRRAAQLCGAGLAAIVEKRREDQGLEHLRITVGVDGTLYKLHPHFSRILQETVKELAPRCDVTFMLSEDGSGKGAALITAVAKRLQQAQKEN
Nature of the experiment: SAR analysis of small molecule inhibitors of hexokinase domain containing I (HKDC1). [Related pubchem assays (depositor defined):AID493160, AID493190]. The class given is functional.

A short description of experiment [3]: Luminescence Cell-Based Dose Response HTS to Identify Inhibitors of 5'UTR Stem-Loop Driven Prion Protein mRNA Translation in H4 Neuroglioblastoma Cells. [Related pubchem assays: 1827 (Project Summary), 1813 (Primary HTS)]. The class given is functional.
The nature of experiment [4]: Fluorescence-based cell-based high throughput dose response assay for inhibitors of the interaction of nucleotide-binding oligomerization domain containing 2 (NOD2) and the receptor-interacting serine-threonine kinase 2 (RIPK2). The class given is functional. To be noted: Homo sapiens.
The nature of experiment [5]: reduction of Shn3 3'UTR-driven luciferase in osteoblasts – cell-based, Clone20 osteoblasts, firefly luciferase, cherry-picked, dose response (AID 624132).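 Also: firefly luciferase luminescence from reporter carrying the Shn3 3'UTR in osteoblasts.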 The class given is functional.
A further experiment is described as follows: cells. The class given is functional, cell-based.
Another experiment deals with Paired box protein Pax-8 (Homo sapiens, UniProt Q06710). Nature of the experiment: PAX8 transcriptional activity inhibition in RMG-I – RMG-I cells, luciferase, cherry-pick, dose response (AID 687027).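 Also: luciferase reporter driven by Pax8 target thyroperoxidase promoter measured by SteadyGlo luminescence.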 The class given is functional, cell-based.
Experiment [6] is described as follows: non-specific 3'UTR reporter inhibition in Clone20-Shn3RL – cell-based, Renilla luciferase, cherry-picked, counter-screen for Shn3 inhibitor project, dose response (AID 624133). The class given is functional.
Experiment [7] in a line: NIH-3T3 fibroblast cytotoxicity, dose response, cytotoxicity control, cell-based, fluorescence, Alamar Blue, secondary assay (AID 2327).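 Also: NIH-3T3 mouse fibroblasts cultured with fluconazole at 8 µg/mL.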 The class given is functional.
Experiment [8] is described as follows: luciferase reporter signal suppression in cells – H4 neuroglioma cells, luminescence, dose response (AID 1990). The class given is functional, cell-based.
A short description of experiment [9]: luciferase reporter signal reduction – luminescence, H4-C neuroglioblastoma cells, dose response (AID 2458).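 Also: H4 neuroglioblastoma cells stably carrying a luciferase reporter gene fusion.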 The class given is functional, cell-based.
The subject of another experiment is BJ. The experiment can be described thus: growth inhibition of engineered Ras-driven BJ cells – cell-based, alamar blue fluorescence, cherrypicked samples, dose response (AID 2631).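 Also: confirmatory dose-response assay in RAS-dependent BJ fibroblasts engineered with TERT, LT and ST, with cytotoxicity read by fluorescence.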 The class given is functional. To be noted: Homo sapiens.
Experiment [10] concerns the target T3, Heat shock factor protein 1 (Mus musculus, UniProt P38532).
T3 sequence (P38532 whole entry): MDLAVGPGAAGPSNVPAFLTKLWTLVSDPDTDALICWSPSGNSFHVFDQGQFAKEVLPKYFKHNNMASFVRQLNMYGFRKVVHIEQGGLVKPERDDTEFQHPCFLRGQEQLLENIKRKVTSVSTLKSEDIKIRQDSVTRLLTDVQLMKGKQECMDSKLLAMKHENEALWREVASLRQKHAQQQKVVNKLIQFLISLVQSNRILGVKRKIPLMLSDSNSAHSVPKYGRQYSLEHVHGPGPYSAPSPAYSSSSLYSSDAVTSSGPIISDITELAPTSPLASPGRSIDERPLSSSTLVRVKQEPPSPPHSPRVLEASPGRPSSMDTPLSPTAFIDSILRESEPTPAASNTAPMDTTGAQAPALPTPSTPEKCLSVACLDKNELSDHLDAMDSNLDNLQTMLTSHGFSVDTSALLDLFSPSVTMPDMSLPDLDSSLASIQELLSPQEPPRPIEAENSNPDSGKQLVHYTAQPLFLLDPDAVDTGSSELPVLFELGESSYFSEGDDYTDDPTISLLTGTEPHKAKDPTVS
The experiment can be described thus: decrease of HSF1-responsive luciferase luminescence – cell-based, NIH3T3, dose retest, confirmation (AID 2382).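 Also: NIH3T3 fibroblasts with HSF1-driven luciferase reporter stressed by proteasome inhibitor MG132; luminescence from HSF1-driven luciferase expression after 8 hours of MG132 stress.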 The class given is functional.

A short description of experiment [11]: alpha-synuclein stem-loop translation blockers – luminescence, H4 neuroglioblastoma cells, dose confirmation, confirmation (AID 2454).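 Also: H4 neuroglioblastoma cells carrying an alpha-synuclein 5'UTR luciferase reporter; potency for inhibition of the luciferase signal.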 The class given is functional, cell-based.
The next experiment concerns Jurkat. Nature of the experiment: blockers of NF-kB activation in T cells – Jurkat, luciferase reporter, luminescence, B- and T-cell, dose response (AID 489004).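 Also: NF-kB luciferase reporter Jurkat cells stimulated with PMA plus ionomycin.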 The class given is functional, cell-based. The conditions noted are these: Homo sapiens.
The nature of experiment [12]: fluconazole-exposed Candida albicans growth modulators – fluorescence, retest, confirmation (AID 2467). The class given is functional, cell-based.
Experiment [13] can be described thus: loss of viability in HepG2 cells – cell-based, CellTiter-Glo, cherry-picked, cytotoxicity control for Shn3 inhibitor project, dose response (AID 624134). The class given is functional.
Experiment [14] in a line: alpha-synuclein stem-loop luciferase translation blockers – H4 neuroglioma cells, luminescence, confirmation (AID 1988). The class given is functional, cell-based.
The nature of experiment [15]: HEK-293T viability loss, compound-treated – cell-based, uHTS hits, cytotoxicity control for B/T-cell NF-kB inhibitor project, dose response (AID 489019).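 Also: IC50 reflects cytotoxicity as loss of cell viability.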 The class given is functional.
The target of experiment [16] is T4, Phospholipase D2 (Homo sapiens, UniProt O14939). The experiment can be described thus: PLD2 purified enzyme concentration response. [Related pubchem assays (depositor defined):AID588854]. The class given is functional.
The target of experiment [17] is T5, Phospholipase D1 (Homo sapiens, UniProt Q13393).
T5 sequence (Q13393 whole entry): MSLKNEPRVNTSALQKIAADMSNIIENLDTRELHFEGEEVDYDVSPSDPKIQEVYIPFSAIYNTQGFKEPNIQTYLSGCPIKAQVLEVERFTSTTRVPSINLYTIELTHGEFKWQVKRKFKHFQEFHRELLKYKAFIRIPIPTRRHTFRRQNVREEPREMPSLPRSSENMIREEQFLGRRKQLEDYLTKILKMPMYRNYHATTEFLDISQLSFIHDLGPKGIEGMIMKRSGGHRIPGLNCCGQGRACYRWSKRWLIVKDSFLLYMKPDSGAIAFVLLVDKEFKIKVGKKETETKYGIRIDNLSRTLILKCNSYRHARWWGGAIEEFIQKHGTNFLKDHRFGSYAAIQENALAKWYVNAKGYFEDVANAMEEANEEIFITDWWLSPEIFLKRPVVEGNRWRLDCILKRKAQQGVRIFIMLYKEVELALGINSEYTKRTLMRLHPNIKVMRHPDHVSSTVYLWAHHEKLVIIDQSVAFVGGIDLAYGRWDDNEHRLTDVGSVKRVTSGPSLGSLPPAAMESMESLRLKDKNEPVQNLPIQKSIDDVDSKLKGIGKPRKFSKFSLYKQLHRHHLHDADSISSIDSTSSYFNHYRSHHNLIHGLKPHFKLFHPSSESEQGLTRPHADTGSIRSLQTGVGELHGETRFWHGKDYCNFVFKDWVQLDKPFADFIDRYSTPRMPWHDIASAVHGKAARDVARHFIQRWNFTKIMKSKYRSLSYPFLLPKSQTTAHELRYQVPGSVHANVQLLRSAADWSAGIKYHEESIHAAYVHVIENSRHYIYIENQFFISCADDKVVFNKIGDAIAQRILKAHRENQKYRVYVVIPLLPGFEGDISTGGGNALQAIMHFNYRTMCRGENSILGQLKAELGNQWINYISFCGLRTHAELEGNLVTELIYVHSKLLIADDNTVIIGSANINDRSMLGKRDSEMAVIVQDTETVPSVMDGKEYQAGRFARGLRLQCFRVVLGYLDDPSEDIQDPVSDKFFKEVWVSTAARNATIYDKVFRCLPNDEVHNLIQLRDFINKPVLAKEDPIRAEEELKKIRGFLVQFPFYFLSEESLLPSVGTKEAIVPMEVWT
Nature of the experiment: cellular phospholipase D1 inhibition IC50 – cell-based, dose response (AID 602151).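 Also: cellular PLD1 assay in Calu-1 cells stimulated with PMA.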 The class given is functional.

For experiment [18], the target named is T4, Phospholipase D2. The experiment can be described thus: cellular phospholipase D2 inhibition IC50 – cell-based, dose response (AID 602147).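 Also: cellular assay in HEK293 cells overexpressing GFP-tagged PLD2.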 The class given is functional.
Experiment [19] deals with T5, Phospholipase D1. The experiment can be described thus: PLD1 purified enzyme concentration response. [Related pubchem assays (depositor defined):AID588854]. The class given is functional.
For a further experiment, the target named is DNA topoisomerase (Yersinia pestis, UniProt A0A2S9PM60). The experiment can be described thus: Yersinia topoisomerase I cleavage product accumulation – biochemical, cherry-pick, dose response (AID 588525).
Experiment [20] has as its target T1, Hexokinase-1. The experiment can be described thus: hexokinase 1 activity inhibitors, potency – biochemical, set 2, resazurin fluorescence coupled readout, selectivity assay for HKDC1 inhibitor project, SAR follow-up (AID 588356). The class given is functional.
The target in experiment [21] is T2, Hexokinase HKDC1. The experiment can be described thus: analog inhibition of human HKDC1 activity – biochemical, set 2, SAR follow-up (AID 588355). The class given is functional.
Experiment [22] deals with Voltage-gated inwardly rectifying potassium channel KCNH2 (Homo sapiens, UniProt Q12809). To be noted: Potency.
The target of another experiment is Mu-type opioid receptor (Homo sapiens, UniProt P35372). The class given is functional, cell-based.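 Also: U2OS cells with beta-arrestin recruitment to OPRM1 by beta-gal complementation.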
Experiment [23] concerns the target 5-hydroxytryptamine receptor 2A (Mus musculus, UniProt P35363). The class given is functional, cell-based.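 Also: CHO-K1 cells with tagged receptor and beta-arrestin; agonist potency measured as compound-induced activation of the receptor.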

The structures appear in SMILES notation. Activity calls are given as the source filed them.

T1 sequence (P19367 whole entry, the tested form may be a part): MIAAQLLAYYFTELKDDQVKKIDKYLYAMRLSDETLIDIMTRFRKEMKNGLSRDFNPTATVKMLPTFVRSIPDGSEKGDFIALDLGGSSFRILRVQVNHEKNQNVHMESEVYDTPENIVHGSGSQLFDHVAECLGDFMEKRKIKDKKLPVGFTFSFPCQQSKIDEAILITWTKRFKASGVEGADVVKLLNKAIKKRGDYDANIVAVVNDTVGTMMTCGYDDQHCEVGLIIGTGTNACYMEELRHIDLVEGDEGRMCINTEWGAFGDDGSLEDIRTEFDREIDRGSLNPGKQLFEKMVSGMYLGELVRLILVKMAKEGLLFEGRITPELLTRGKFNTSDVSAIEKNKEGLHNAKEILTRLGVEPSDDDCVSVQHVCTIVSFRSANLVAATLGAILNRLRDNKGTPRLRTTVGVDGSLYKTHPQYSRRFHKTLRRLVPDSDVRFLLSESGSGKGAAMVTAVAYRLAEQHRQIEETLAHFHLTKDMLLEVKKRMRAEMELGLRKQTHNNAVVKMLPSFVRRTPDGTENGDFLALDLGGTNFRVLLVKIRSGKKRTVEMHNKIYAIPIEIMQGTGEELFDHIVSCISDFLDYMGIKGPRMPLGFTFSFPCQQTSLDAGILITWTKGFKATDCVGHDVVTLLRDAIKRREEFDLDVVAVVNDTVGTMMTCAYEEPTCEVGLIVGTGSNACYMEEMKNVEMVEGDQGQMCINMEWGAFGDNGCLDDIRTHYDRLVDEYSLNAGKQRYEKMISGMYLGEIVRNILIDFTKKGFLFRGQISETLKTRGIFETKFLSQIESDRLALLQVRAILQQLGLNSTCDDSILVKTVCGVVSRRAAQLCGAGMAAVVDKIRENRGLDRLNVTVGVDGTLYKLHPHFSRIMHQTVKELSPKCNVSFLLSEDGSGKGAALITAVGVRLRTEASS
T4 sequence (O14939 whole entry): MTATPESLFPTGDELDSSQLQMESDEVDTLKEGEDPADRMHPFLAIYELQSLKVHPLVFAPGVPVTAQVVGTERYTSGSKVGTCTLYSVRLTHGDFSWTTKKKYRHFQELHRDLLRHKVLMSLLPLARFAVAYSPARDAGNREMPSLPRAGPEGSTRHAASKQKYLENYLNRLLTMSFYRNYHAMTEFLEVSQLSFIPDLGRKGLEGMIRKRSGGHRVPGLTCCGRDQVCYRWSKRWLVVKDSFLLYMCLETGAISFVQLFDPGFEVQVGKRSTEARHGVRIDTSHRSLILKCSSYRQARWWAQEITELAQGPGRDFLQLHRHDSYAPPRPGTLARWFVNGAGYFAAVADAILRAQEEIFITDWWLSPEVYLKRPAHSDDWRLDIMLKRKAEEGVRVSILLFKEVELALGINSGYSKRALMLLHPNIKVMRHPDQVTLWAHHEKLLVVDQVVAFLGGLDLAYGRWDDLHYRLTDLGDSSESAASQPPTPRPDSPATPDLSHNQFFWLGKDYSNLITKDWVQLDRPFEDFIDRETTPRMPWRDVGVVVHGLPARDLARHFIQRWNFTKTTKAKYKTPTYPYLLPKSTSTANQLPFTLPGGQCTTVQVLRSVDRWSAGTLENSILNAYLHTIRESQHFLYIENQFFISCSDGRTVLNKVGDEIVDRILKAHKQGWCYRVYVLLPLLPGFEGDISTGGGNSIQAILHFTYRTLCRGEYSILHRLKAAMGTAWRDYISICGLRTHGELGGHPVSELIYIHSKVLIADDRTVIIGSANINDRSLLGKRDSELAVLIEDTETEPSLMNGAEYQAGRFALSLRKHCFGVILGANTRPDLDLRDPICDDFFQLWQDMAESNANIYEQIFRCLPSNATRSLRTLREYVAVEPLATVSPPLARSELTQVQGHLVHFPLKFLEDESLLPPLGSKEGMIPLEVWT
Chain of 5-hydroxytryptamine receptor 2A (P35363 whole entry): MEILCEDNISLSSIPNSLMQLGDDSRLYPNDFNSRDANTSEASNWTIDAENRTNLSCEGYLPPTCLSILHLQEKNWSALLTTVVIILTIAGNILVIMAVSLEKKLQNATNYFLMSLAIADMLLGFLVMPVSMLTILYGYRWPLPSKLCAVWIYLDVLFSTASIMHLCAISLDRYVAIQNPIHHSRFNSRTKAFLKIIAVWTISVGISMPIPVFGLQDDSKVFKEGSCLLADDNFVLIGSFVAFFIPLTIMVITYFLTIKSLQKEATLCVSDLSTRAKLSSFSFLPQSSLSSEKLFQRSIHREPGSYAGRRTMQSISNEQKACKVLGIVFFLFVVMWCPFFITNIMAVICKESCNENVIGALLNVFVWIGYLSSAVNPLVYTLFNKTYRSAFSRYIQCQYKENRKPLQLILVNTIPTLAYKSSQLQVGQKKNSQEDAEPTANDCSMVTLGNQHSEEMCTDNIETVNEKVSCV
Chain of DNA topoisomerase (A0A2S9PM60 whole entry): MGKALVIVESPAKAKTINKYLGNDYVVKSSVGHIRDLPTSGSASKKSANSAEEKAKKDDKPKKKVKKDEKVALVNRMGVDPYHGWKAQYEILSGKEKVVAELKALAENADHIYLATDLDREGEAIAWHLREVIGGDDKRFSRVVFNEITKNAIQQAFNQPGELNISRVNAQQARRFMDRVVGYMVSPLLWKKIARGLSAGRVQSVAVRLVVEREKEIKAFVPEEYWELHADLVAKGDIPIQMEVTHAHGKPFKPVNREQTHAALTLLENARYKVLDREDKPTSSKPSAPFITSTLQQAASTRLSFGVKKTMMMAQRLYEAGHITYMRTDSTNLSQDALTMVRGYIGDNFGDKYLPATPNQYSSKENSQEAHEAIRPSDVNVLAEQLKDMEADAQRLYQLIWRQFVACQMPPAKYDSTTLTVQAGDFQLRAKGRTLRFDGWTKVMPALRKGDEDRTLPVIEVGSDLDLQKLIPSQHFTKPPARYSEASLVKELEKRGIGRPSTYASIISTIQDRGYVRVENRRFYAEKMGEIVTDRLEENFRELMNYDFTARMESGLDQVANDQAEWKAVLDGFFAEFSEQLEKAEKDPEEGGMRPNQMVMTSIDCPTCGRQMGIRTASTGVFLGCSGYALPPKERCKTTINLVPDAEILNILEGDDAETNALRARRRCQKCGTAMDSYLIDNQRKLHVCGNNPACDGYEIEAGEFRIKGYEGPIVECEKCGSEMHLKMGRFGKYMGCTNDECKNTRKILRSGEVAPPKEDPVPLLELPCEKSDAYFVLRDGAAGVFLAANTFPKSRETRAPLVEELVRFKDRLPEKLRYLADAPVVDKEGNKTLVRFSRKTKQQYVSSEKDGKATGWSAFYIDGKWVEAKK
Chain of Voltage-gated inwardly rectifying potassium channel KCNH2 (Q12809 whole entry): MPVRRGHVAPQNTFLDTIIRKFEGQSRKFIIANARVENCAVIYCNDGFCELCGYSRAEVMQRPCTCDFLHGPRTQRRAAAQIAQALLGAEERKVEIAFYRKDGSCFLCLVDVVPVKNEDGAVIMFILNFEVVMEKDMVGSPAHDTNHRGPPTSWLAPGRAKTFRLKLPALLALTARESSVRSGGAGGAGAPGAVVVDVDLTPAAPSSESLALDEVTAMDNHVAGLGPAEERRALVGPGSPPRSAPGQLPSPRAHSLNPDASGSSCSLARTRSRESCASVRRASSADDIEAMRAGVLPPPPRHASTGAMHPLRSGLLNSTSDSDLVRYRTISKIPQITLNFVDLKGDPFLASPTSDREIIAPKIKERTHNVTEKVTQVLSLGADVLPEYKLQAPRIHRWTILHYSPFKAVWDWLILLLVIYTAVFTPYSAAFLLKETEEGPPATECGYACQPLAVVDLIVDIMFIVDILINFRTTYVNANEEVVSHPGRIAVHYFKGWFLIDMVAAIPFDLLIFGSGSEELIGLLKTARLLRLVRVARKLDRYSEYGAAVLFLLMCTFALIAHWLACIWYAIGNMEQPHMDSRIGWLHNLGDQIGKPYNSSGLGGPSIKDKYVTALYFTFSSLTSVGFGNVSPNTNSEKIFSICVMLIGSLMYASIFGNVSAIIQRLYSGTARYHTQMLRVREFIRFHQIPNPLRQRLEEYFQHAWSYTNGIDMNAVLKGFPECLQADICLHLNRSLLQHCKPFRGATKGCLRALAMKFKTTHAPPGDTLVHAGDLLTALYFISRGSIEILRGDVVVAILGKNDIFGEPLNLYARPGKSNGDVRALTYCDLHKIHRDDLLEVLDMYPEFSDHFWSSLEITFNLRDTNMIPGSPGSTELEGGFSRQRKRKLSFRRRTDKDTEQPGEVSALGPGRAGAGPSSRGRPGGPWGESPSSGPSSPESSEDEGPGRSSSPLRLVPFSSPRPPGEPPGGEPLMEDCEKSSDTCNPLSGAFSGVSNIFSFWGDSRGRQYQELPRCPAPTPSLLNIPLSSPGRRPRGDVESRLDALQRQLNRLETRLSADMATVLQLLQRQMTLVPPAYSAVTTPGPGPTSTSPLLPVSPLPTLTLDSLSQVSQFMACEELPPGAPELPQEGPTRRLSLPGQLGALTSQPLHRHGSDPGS
Chain of Paired box protein Pax-8 (Q06710 whole entry): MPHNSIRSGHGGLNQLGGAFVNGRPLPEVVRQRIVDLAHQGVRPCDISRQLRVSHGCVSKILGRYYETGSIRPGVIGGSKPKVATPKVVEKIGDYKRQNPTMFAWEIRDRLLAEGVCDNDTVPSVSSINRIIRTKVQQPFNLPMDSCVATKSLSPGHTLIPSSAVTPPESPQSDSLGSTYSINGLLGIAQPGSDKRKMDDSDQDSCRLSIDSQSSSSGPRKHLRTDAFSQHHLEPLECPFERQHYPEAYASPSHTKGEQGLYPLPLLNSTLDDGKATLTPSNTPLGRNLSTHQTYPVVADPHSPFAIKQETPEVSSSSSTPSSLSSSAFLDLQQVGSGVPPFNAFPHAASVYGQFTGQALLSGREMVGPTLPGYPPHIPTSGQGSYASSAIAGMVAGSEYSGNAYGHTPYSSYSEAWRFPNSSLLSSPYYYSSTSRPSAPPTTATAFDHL

Turning to `O=C(Nc1cccc(C(F)(F)F)c1)c1cccc(NC(=O)c2cnccn2)c1`, the IC50 on Hexokinase-1 [1] and at Hexokinase HKDC1 [2] was > 80000 nM (inactive) each time.
On to `COc1ccc(C[C@H]2NC[C@H](O)[C@H]2OC(C)=O)cc1` [ANISOMYCIN], for which the EC50 in experiment [3] was > 120000 nM (not active); in “cells”, 121 nM (active); in experiment [7] it was < 120 nM (active); in experiment [8] it was < 100 nM (active); in experiment [9] it was 91 nM (active); in the experiment with BJ, 30.8 nM (active). Further, the EC50 is 243 nM (active) in experiment [10], 104 nM (active) in experiment [11], 1030 nM (active) in experiment [12] and < 100 nM (active) in [14]. For the same compound, the results for the IC50 (in [4]; with Jurkat; in experiment [15]) were 49800 nM (inactive), < 160 nM (active) and > 80000 nM (inactive), respectively. In addition, the AC50 in experiment [5] was 882 nM (active); on Paired box protein Pax-8 it was < 260 nM (active); in experiment [6] it was 3440 nM (active); in experiment [13], > 70000 nM (inactive).
Take `C[C@H](CN1CCC(n2c(=O)[nH]c3cc(Cl)ccc32)CC1)NC(=O)c1cc2ccccc2[nH]1`: the IC50 on Phospholipase D2 [16] was 120 nM (active); on Phospholipase D1 [17], 2 nM (active); at Phospholipase D2 [18], 260 nM (active); on Phospholipase D1 [19], 9 nM (active).
With `Cc1cc(OCCn2nc(C(=O)O)c3ccccc3c2=O)ccc1C(C)C`, the AC50 at DNA topoisomerase is 3680 nM (active).
Turning to `CC(=O)NC1C(=O)N(Cc2ccccc2)c2ccc(Cl)cc21` (centres undefined), the IC50 on Hexokinase-1 [20] and at Hexokinase HKDC1 [21] was > 80000 nM (inactive) throughout.
Consider `C=CCN1CCc2cc(O)c(O)cc2C(c2ccccc2)C1` (centres undefined), for which the AC50 in [22] was 15800 nM (inconclusive). The EC50 was 92500 nM (inactive) at Mu-type opioid receptor and 2320 nM (active) in experiment [23].
